In the supplement of paper PMC10307832:

Columns and labels:
Assay in all cases: relative viability (nuclei count vs DMSO), 5 days (fraction); higher = more cells survive
Sunitinib + Decitabine = compound: CCN(CC)CCNC(=O)c1c(C)[nH]c(/C=C2\C(=O)Nc3ccc(F)cc32)c1C [Sunitinib] + Nc1ncn([C@H]2C[C@H](O)[C@@H](CO)O2)c(=O)n1 [Decitabine] (partner 2 µM)
Method in brief: (§1)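 Medians of duplicate plates are given as relative viability. That measure is the nuclei count in treated wells divided by the count in vehicle wells. Counts were taken on 4× images of lung cancer cell lines in 1536-well plates, 5 days after pin-tool dosing the day after seeding with one drug alone or a fixed anchor-drug dose plus five library-drug doses (not always all listed) in √10 steps.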

Sunitinib + Tozasertib = compound: CCN(CC)CCNC(=O)c1c(C)[nH]c(/C=C2\C(=O)Nc3ccc(F)cc32)c1C [Sunitinib] + Cc1cc(Nc2cc(N3CCN(C)CC3)nc(Sc3ccc(NC(=O)C4CC4)cc3)n2)n[nH]1 [Tozasertib] (partner 0.1 µM)
Method in brief: as §1

Sunitinib + Lapatinib = compound: CCN(CC)CCNC(=O)c1c(C)[nH]c(/C=C2\C(=O)Nc3ccc(F)cc32)c1C [Sunitinib] + CS(=O)(=O)CCNCc1ccc(-c2ccc3ncnc(Nc4ccc(OCc5cccc(F)c5)c(Cl)c4)c3c2)o1 [Lapatinib] (partner 2 µM)
Method in brief: as §1

Sunitinib + Crizotinib = compound: CCN(CC)CCNC(=O)c1c(C)[nH]c(/C=C2\C(=O)Nc3ccc(F)cc32)c1C [Sunitinib] + C[C@@H](Oc1cc(-c2cnn(C3CCNCC3)c2)cnc1N)c1c(Cl)ccc(F)c1Cl [Crizotinib] (partner 1 µM)
Method in brief: as §1

Row | Cell Line | relative viability (Sunitinib + Decitabine; first compound 0.02 µM) | relative viability (Sunitinib + Decitabine; first compound 0.06325 µM) | relative viability (Sunitinib + Decitabine; first compound 0.2 µM) | relative viability (Sunitinib + Decitabine; first compound 0.6325 µM) | relative viability (Sunitinib + Decitabine; first compound 2 µM) | relative viability (Sunitinib + Tozasertib; first compound 0.02 µM) | relative viability (Sunitinib + Tozasertib; first compound 0.06325 µM) | relative viability (Sunitinib + Tozasertib; first compound 0.2 µM) | relative viability (Sunitinib + Tozasertib; first compound 0.6325 µM) | relative viability (Sunitinib + Tozasertib; first compound 2 µM) | relative viability (Sunitinib + Lapatinib; first compound 0.02 µM) | relative viability (Sunitinib + Lapatinib; first compound 0.06325 µM) | relative viability (Sunitinib + Lapatinib; first compound 0.2 µM) | relative viability (Sunitinib + Lapatinib; first compound 2 µM) | relative viability (Sunitinib + Crizotinib; first compound 0.02 µM) | relative viability (Sunitinib + Crizotinib; first compound 0.06325 µM) | relative viability (Sunitinib + Crizotinib; first compound 0.2 µM) | relative viability (Sunitinib + Crizotinib; first compound 0.6325 µM) | relative viability (Sunitinib + Crizotinib; first compound 2 µM) | relative viability (Sunitinib + Lapatinib; first compound 0.6325 µM)
1 | HCC-366 | 0.314 | 0.361 | 0.365 | 0.313 | 0.408 | 0.12 | 0.0634 | 0.133 | 0.0819 | 0.0457 | 1.04 | 1.17 | 1.33 | 1.07 | 0.559 | 0.519 | 1.02 | 0.593 | 0.551 | 
2 | HCC-827 | 0.324 | 0.314 | 0.31 | 0.322 | 0.292 | 0.405 | 0.416 | 0.449 | 0.439 | 0.407 | 0.191 | 0.198 | 0.198 | 0.215 | 0.911 | 0.964 | 0.965 | 0.939 | 0.947 | 0.222
3 | HOP-62 | 0.22 | 0.218 | 0.252 | 0.209 | 0.239 | 0.351 | 0.352 | 0.383 | 0.431 | 0.397 | 0.961 | 1.09 | 1.01 | 1.1 | 0.862 | 1.23 | 0.971 |  | 1.03 | 1.01
4 | LC-2-ad | 0.788 | 0.777 | 0.82 | 0.728 | 0.714 | 0.479 | 0.484 | 0.486 | 0.502 | 0.493 | 0.916 | 1.11 | 1.07 | 0.581 | 0.446 | 0.554 | 0.452 | 0.521 | 0.534 | 0.904
5 | LCLC-97TM1 | 0.232 | 0.225 | 0.238 | 0.212 | 0.223 | 0.202 | 0.214 | 0.268 | 0.195 | 0.236 | 1.06 | 0.81 |  |  | 0.347 | 0.384 |  | 0.319 | 0.362 | 0.924
6 | LCLC-103H | 0.691 | 0.798 | 0.77 | 0.709 | 0.71 | 0.459 | 0.44 | 0.478 | 0.44 | 0.514 |  |  |  |  | 1.01 | 1.09 | 1.17 | 1.05 | 1.06 | 
7 | LK-2 | 0.238 | 0.409 | 0.299 | 0.316 | 0.279 | 0.177 | 0.196 | 0.167 | 0.167 | 0.188 | 0.773 |  | 1.15 | 0.866 | 0.203 | 0.265 | 0.203 | 0.23 | 0.231 | 0.939
8 | LOU-NH91 | 0.787 | 0.824 | 0.826 | 0.805 | 0.835 | 0.666 | 0.732 | 0.673 | 0.753 | 0.738 | 0.732 | 0.839 | 0.828 | 0.764 | 0.733 | 0.732 | 0.789 | 0.71 | 0.746 | 0.816
9 | LU99A | 0.792 | 0.836 | 1.02 | 0.995 | 0.734 | 0.296 | 0.285 | 0.267 | 0.273 | 0.273 | 0.869 | 1.12 | 0.925 | 1.01 | 0.517 | 0.524 | 0.605 | 0.764 | 0.674 | 1.14
10 | LXF-289 | 0.379 | 0.394 | 0.436 | 0.382 | 0.408 | 0.199 | 0.182 | 0.191 | 0.203 | 0.269 | 0.903 |  | 0.948 |  | 0.771 | 0.811 | 0.913 | 0.8 |  | 0.984
11 | NCI-H23 | 0.293 | 0.351 | 0.328 | 0.307 | 0.329 |  | 0.37 | 0.499 | 0.341 | 0.264 | 1.1 | 1.42 | 1.44 | 1.08 | 0.478 | 0.477 | 0.854 | 0.548 | 0.527 | 1.36
12 | NCI-H441 | 0.271 | 0.285 | 0.266 | 0.271 | 0.317 | 0.706 | 0.639 | 0.652 | 0.71 | 0.494 |  |  |  |  | 0.686 | 0.802 | 0.831 | 0.858 |  | 
13 | NCI-H1299 |  |  |  |  |  |  |  |  |  |  | 0.956 | 0.988 | 0.992 | 0.953 | 0.923 | 0.965 | 0.991 |  |  | 0.932
14 | NCI-H1395 | 0.712 | 0.659 | 0.721 | 0.72 | 0.639 | 0.751 | 0.72 | 0.696 | 0.846 | 0.779 | 0.947 | 1.17 | 1.07 | 1 |  |  |  |  |  | 1.16
15 | NCI-H1563 |  |  |  |  |  |  |  |  |  |  | 0.925 | 0.988 | 1.03 | 1.05 | 0.833 | 0.878 | 0.805 | 0.946 | 0.906 | 1.09
16 | NCI-H1648 | 0.46 | 0.647 | 0.633 | 0.55 | 0.681 |  | 0.477 | 0.482 | 0.596 | 0.667 |  |  |  |  |  |  |  |  |  | 
17 | NCI-H1703 |  |  |  |  |  |  |  |  |  |  | 0.633 | 0.264 | 0.318 | 0.284 | 0.39 | 0.206 | 0.238 | 0.17 | 0.225 | 0.245
18 | NCI-H1792 | 0.457 | 0.594 | 0.625 | 0.527 | 0.591 |  |  |  |  |  | 0.885 | 0.952 | 1.07 | 0.923 | 0.821 | 1.03 | 1.22 | 0.979 | 1.01 | 0.809
19 | NCI-H1793 |  | 0.496 | 0.487 | 0.549 | 0.49 | 0.413 | 0.34 | 0.351 | 0.281 | 0.214 |  | 0.675 | 0.828 | 0.484 |  |  |  |  |  | 0.651
20 | NCI-H2228 |  |  |  |  |  | 0.23 | 0.266 | 0.279 | 0.207 | 0.223 | 1.04 | 1.23 | 1.13 |  | 0.495 | 0.553 | 0.435 | 0.583 | 0.351 | 1.16
21 | NCI-H2342 | 0.751 | 0.784 | 0.708 | 0.819 | 0.718 | 0.396 | 0.616 | 0.539 | 0.56 | 0.453 |  |  |  |  |  |  |  |  |  | 
